Reference: ChEMBL document CHEMBL5357063, “Lysophosphatidylcholines Enriched with cis and trans Palmitoleic Acid Regulate Insulin Secretion via GPR119 Receptor” (ACS Med Chem Lett, 2024)
The source made the active and inactive calls. The calls are words filed in the database; no cut-off is given here.

How the values were obtained:
[1] = test system: EndoC-betaH1; assay: Induction of glucose stimulated insulin secretion in human EndoC-betaH1 cells at 5 uM incubated for 1 hr in presence of GPR120 antagonist by ELISA method; format: functional, cell-based
[2] = test system: EndoC-betaH1; assay: Induction of glucose stimulated insulin secretion in human EndoC-betaH1 cells at 5 uM incubated for 1 hr in presence of GPR119 antagonist by ELISA method (reference value: 1.97 fmol/microg); format: functional
[3] = test system: Cell membrane; assay: Induction of cell membrane permeabilization in human EndoC-betaH1 cells at 10 uM measured upto 3.5 mins propidium iodide staining based fluorescence analysis; format: subcellular
[4] = test system: EndoC-betaH1; assay: Cytotoxicity against human EndoC-betaH1 cells assessed as reduction in cell viability at 5 uM measured after 48 to 72 hrs by PrestoBlue cell viability assay; format: toxicity, cell-based; details: endoc-betah1, 5 µM, time 48-72 hrs
[5] = test system: EndoC-betaH1; assay: Induction of insulin secretion in human EndoC-betaH1 cells at 5 uM incubated for 1 hr by ELISA method; format: functional, cell-based
[6] = test system: EndoC-betaH1; assay: Induction of cAMP production in human EndoC-betaH1 cells at 5 uM in presence of GPR40 antagonist by ELISA method; format: functional, cell-based
[7] = test system: EndoC-betaH1; assay: Cytotoxicity against human EndoC-betaH1 cells assessed as reduction in cell viability at 10 to 1000 uM measured after 24 to 72 hrs by PrestoBlue cell viability assay; format: toxicity, cell-based; details: endoc-betah1, 1000 µM, dose lower 10 µM, time lower 24 hrs, dose upper 1000 µM, time upper 72 hrs
[8] = test system: EndoC-betaH1; assay: Induction of glucose stimulated insulin secretion in human EndoC-betaH1 cells transfected with siRNA measured after 48 hrs in presence of GPR119 antagonist by ELISA method; format: functional, cell-based
[9] = test system: EndoC-betaH1; assay: Induction of cAMP production in human EndoC-betaH1 cells at 5 uM in presence of GPR120 antagonist by ELISA method; format: functional, cell-based
[10] = test system: EndoC-betaH1; assay: Effect on intracellular calcium mobilization in human EndoC-betaH1 cells at 5 uM measured after 3 mins; format: functional, cell-based
[11] = test system: EndoC-betaH1; assay: Cytotoxicity against human EndoC-betaH1 cells assessed as reduction in cell viability at 1 uM measured after 24 to 72 hrs by PrestoBlue cell viability assay; format: toxicity, cell-based; details: endoc-betah1, 1 µM, time 24-72 hrs
[12] = Induction of cAMP production in human EndoC-betaH1 cells at 5 uM measured per mg of protein in presence of GPR119 antagonist by ELISA method; format: functional
[13] = test system: EndoC-betaH1; assay: Induction of glucose stimulated insulin secretion in human EndoC-betaH1 cells at 5 uM incubated for 1 hr in presence of GPR40 antagonist by ELISA method; format: functional, cell-based
[14] = test system: EndoC-betaH1; assay: Induction of glucose stimulated insulin secretion in human EndoC-betaH1 cells at 5 uM incubated for 1 hr in presence of GPR55 antagonist by ELISA method; format: functional, cell-based
[15] = Induction of cAMP production in human EndoC-betaH1 cells at 5 uM by ELISA method; format: functional
[16] = test system: EndoC-betaH1; assay: Induction of cAMP production in human EndoC-betaH1 cells at 5 uM in presence of GPR55 antagonist by ELISA method; format: functional, cell-based
[17] = test system: EndoC-betaH1; assay: Induction of glucose stimulated insulin secretion in human EndoC-betaH1 cells at 5 uM incubated for 1 hr in presence of GPR119 antagonist by ELISA method (reference value: 2.03 fmol/microg); format: functional
[18] = test system: EndoC-betaH1; assay: Induction of glucose stimulated insulin secretion in human EndoC-betaH1 cells at 1 uM incubated for 1 hr in presence of GPR119 antagonist by ELISA method; format: functional, cell-based
[19] = test system: EndoC-betaH1; assay: Cytotoxicity against human EndoC-betaH1 cells assessed as reduction in cell viability at 10 uM measured after 24 to 72 hrs by PrestoBlue cell viability assay; format: toxicity, cell-based; details: endoc-betah1, 10 µM, time 24-72 hrs
[20] = test system: EndoC-betaH1; assay: Induction of glucose stimulated insulin secretion in human EndoC-betaH1 cells at 100 nM incubated for 1 hr in presence of GPR119 antagonist by ELISA method; format: functional, cell-based
[21] = test system: EndoC-betaH1; assay: Induction of cAMP production in human EndoC-betaH1 cells at 5 uM in presence of GPR119 antagonist by ELISA method; format: functional, cell-based
[22] = test system: EndoC-betaH1; assay: Induction of glucose stimulated insulin secretion in human EndoC-betaH1 cells at 5 uM incubated for 1 hr in presence of GPR119 antagonist by ELISA method; format: functional, cell-based

Activity [3]	Compound	Activity [1]	Activity [5]	Activity [6]	Activity [8]	Activity [9]	Activity [10]	Activity [12] [pmol]	Activity [13]	Activity [14]	Activity [16]	further results
inactive	CCCCCC/C=C/CCCCCCCC(=O)OC[C@@H](O)COP(=O)([O-])OCC[N+](C)(C)C	Active	Active	Active	inactive	Active	inactive	0.65	Active	Active		Activity [2]: 1.34 fmol/µg; Activity [4]: Toxic; Activity [7]: Toxic; Activity [11]: Non-Toxic
inactive	CCCCCC/C=C\CCCCCCCC(=O)OC[C@@H](O)COP(=O)([O-])OCC[N+](C)(C)C	Active	Active	Active	inactive	Active	inactive	0.8	Active	Active	inactive	Activity [15]: 1.87 pg/µg; Activity [17]: 1.47 fmol/µg; Activity [18]: Active; Activity [19]: Non-Toxic
	CC(C)c1noc(C2CCN(c3ncnc(Nc4ccc(S(C)(=O)=O)cc4F)c3[N+](=O)[O-])CC2)n1											Activity [20]: Active

Compound	Activity [3]	Activity [1]	Activity [5]	Activity [6]	Activity [8]	Activity [9]	Activity [10]	Activity [12] [pmol]	Activity [13]	Activity [14]	Activity [16]	further results
CCCCCCCCCCCCCCCC(=O)OC[C@@H](O)COP(=O)([O-])OCC[N+](C)(C)C	inactive	Active	Active	Active		Active	inactive		Active	Active	Active	Activity [21]: Active; Activity [22]: inactive
